The experiment deals with BRAF V600E (Homo sapiens, UniProt P15056, V600E). As to the kind of experiment: HiBiT cellular BRAF^V600E degradation assay. It counts as cell-based. The note with it: for DC50: concentration at which 50% of total cellular BRAF^V600E is degraded; for Emax: read-out: HiBit 24 h Emax. On the technique in general: With HiBiT, luminescence reflects the tagged protein that the partner subunit can reach.

Where [1] appears, read: A375.10 cells, 24 h, residual protein remaining in the cell.

Where two headings read alike, the source gives them in different places.

Sequence of BRAF V600E (P15056 whole entry V600E): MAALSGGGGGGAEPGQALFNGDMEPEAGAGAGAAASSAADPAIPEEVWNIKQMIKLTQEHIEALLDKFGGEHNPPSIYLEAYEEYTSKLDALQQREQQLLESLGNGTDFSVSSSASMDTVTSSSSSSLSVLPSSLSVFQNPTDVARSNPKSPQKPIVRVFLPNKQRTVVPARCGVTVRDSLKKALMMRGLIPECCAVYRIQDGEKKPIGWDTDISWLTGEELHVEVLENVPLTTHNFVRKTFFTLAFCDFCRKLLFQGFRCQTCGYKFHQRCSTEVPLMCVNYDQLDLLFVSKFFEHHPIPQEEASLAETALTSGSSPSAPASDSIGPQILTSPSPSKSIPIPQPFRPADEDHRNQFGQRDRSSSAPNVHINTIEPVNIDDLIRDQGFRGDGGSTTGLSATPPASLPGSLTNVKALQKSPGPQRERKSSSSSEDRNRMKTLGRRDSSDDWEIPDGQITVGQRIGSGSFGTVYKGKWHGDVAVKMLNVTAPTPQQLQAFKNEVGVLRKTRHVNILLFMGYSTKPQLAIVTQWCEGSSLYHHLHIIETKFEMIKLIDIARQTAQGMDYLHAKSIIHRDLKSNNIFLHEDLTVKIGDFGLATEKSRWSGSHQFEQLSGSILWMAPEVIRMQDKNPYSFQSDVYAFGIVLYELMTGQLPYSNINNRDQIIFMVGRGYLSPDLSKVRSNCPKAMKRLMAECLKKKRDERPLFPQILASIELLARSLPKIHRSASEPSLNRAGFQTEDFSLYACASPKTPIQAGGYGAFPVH

For the setting “A375.10 cells, 24 h”, `CCN(C)S(=O)(=O)Nc1ccc(F)c(Oc2ccc3ncn(CCCC4CCN(CC(=O)N5CCC(c6ccc(NC7CCC(=O)NC7=O)cc6)CC5)CC4)c(=O)c3c2)c1C#N` (stereo not drawn) [Example 7, 6-[2-cyano-3-[[ethyl(methyl)sulfamoyl]amino]-6-fluorophenoxy]-3-[3-[1-[2-[4-[4-[(2,6-dioxopiperidin-3-yl)amino]phenyl]piperidin-1-yl]-2-oxoethyl]piperidin-4-yl]propyl]-4-oxoquinazoline] yielded a half-maximal degradation concentration (DC50) of 0.0422 µM. In addition, the Emax under setting [1] came to 15.2%.
For the setting “A375.10 cells, 24 h”, `CCN(C)S(=O)(=O)Nc1ccc(F)c(Oc2ccc3ncn([C@H]4COC5(CCN(C(=O)CC6CCN(c7ccc(NC8CCC(=O)NC8=O)cc7F)CC6)CC5)C4)c(=O)c3c2)c1C#N` (stereo partly drawn) [Example 47, (3R)-3-[6-[2-cyano-3-[[ethyl(methyl)sulfamoyl]amino]-6-fluorophenoxy]-4-oxoquinazolin-3-yl]-8-[2-[1-[4-[(2,6-dioxopiperidin-3-yl)amino]-2-fluorophenyl]piperidin-4-yl]acetyl]-1-oxa-8-azaspiro[4.5]decane] yielded a DC50 of 0.0257 µM. Also, the Emax under setting [1] amounted to 19.3%.
Where the note is “A375.10 cells, 24 h”, `CCN(C)S(=O)(=O)Nc1ccc(F)c(Oc2ccc3ncn([C@H]4COC5(CCN(C(=O)CC6(F)CCN(c7cc8c(cc7F)c(N7CCC(=O)NC7=O)nn8C)CC6)CC5)C4)c(=O)c3c2)c1C#N` [Example 201, (3R)-3-[6-[2-cyano-3-[[ethyl(methyl)sulfamoyl]amino]-6-fluorophenoxy]-4-oxoquinazolin-3-yl]-8-[2-[1-[3-(2,4-dioxo-1,3-diazinan-1-yl)-5-fluoro-1-methylindazol-6-yl]-4-fluoropiperidin-4-yl]acetyl]-1-oxa-8-azaspiro[4.5]decane] came in with a half-maximal degradation concentration (DC50) of 0.0425 µM. In addition, the Emax under setting [1] was 27.2%.
Take `CCN(C)S(=O)(=O)Nc1ccc(F)c(Oc2ccc3ncn(CC4CC5(CCN(C(=O)CN6CCC(c7ccc(NC8CCC(=O)NC8=O)cc7F)CC6)CC5)C4)c(=O)c3c2)c1C#N` (stereo not drawn) [Example 31, 6-[2-cyano-3-[[ethyl(methyl)sulfamoyl]amino]-6-fluorophenoxy]-3-[[7-[2-[4-[4-[(2,6-dioxopiperidin-3-yl)amino]-2-fluorophenyl]piperidin-1-yl]acetyl]-7-azaspiro[3.5]nonan-2-yl]methyl]-4-oxoquinazoline]: half-maximal degradation (A375.10 cells, 24 h) (DC50) was put at 0.0469 µM. Further, under setting [1], the Emax turned out to be 11.6%.
On the same counts, the results for `CCN(C)S(=O)(=O)Nc1ccc(F)c(Oc2ccc3ncn(-c4cnn(C5CCN(C(=O)CN6CCC(c7ccc(NC8CCC(=O)NC8=O)cc7F)CC6)CC5)c4)c(=O)c3c2)c1C#N` (stereo not drawn) [Example 16, 6-[2-cyano-3-[[ethyl(methyl)sulfamoyl]amino]-6-fluorophenoxy]-3-[1-[1-[2-[4-[4-[(2,6-dioxopiperidin-3-yl)amino]-2-fluorophenyl]piperidin-1-yl]acetyl]piperidin-4-yl]pyrazol-4-yl]-4-oxoquinazoline] are 0.0205 µM and 15.5%.
In the case of `Cn1nc(N2CCC(=O)NC2=O)c2cc(F)c(N3CCC(O)(CC(=O)N4CCC5(CC4)C[C@@H](n4cnc6ccc(Oc7c(F)ccc(NS(=O)(=O)C8CCCC8)c7C#N)cc6c4=O)CO5)CC3)cc21` [Example 191, N-[2-cyano-3-[3-[(3R)-8-[2-[1-[3-(2,4-dioxo-1,3-diazinan-1-yl)-5-fluoro-1-methylindazol-6-yl]-4-hydroxypiperidin-4-yl]acetyl]-1-oxa-8-azaspiro[4.5]decan-3-yl]-4-oxoquinazolin-6-yl]oxy-4-fluorophenyl]cyclopentanesulfonamide], it took 0.0271 µM to reach half-maximal degradation (A375.10 cells, 24 h) (DC50). Moreover, the Emax under setting [1] stood at 26.8%.
`CCN(C)S(=O)(=O)Nc1ccc(F)c(Oc2ccc3ncn(C4CCC5(CC4)CCN(C(=O)CN4CCC(c6ccc(NC7CCC(=O)NC7=O)cc6F)CC4)C5)c(=O)c3c2)c1C#N` (stereo not drawn) [Example 32, 6-[2-cyano-3-[[ethyl(methyl)sulfamoyl]amino]-6-fluorophenoxy]-3-[2-[2-[4-[4-[(2,6-dioxopiperidin-3-yl)amino]-2-fluorophenyl]piperidin-1-yl]acetyl]-2-azaspiro[4.5]decan-8-yl]-4-oxoquinazoline]: the DC50 (A375.10 cells, 24 h) stood at 0.0403 µM. Besides, under setting [1], the maximum response (Emax) was 11.4%.
As to `CCN(C)S(=O)(=O)Nc1ccc(F)c(Oc2ccc3ncn(C4CCC5(CCN(C(=O)CN6CCC(c7ccc(NC8CCC(=O)NC8=O)cc7F)CC6)CC5)C4)c(=O)c3c2Br)c1C#N` (stereo not drawn) [Example 69, 5-bromo-6-[2-cyano-3-[[ethyl(methyl)sulfamoyl]amino]-6-fluorophenoxy]-3-[8-[2-[4-[4-[(2,6-dioxopiperidin-3-yl)amino]-2-fluorophenyl]piperidin-1-yl]acetyl]-8-azaspiro[4.5]decan-3-yl]-4-oxoquinazoline], the DC50 (A375.10 cells, 24 h) was found to be 0.00663 µM. Under setting [1], the Emax stood at 9.52%.
Compound `CCN(C)S(=O)(=O)Nc1ccc(F)c(Oc2ccc3ncn([C@H]4COC5(CCN(C(=O)C[C@H]6CC[C@@H](c7ccc8c(C9CCC(=O)NC9=O)nn(C)c8c7)CC6)CC5)C4)c(=O)c3c2)c1C#N` (single isomer, unassigned) [Example 170] gave a DC50 (A375.10 cells, 24 h) of 0.0309 µM. For the same compound, the Emax under setting [1] was 21.2%.
On the same counts, the results for `CCN(C)S(=O)(=O)Nc1ccc(F)c(Oc2ccc3ncn([C@H]4COC5(CCN(C(=O)CC6(O)CCN(c7ccc8c(N9CCC(=O)NC9=O)nn(C)c8c7F)CC6)CC5)C4)c(=O)c3c2)c1C#N` [Example 173, (3R)-3-[6-[2-cyano-3-[[ethyl(methyl)sulfamoyl]amino]-6-fluorophenoxy]-4-oxoquinazolin-3-yl]-8-[2-[1-[3-(2,4-dioxo-1,3-diazinan-1-yl)-7-fluoro-1-methylindazol-6-yl]-4-hydroxypiperidin-4-yl]acetyl]-1-oxa-8-azaspiro[4.5]decane] are 0.192 µM and 46%.
Regarding `CCN(C)S(=O)(=O)Nc1ccc(F)c(Oc2ccc3ncn(-c4cnc(N5CCN(C(=O)[C@H](CO)N6CCC(c7ccc(N[C@H]8CCC(=O)NC8=O)cc7F)CC6)CC5)nc4)c(=O)c3c2)c1C#N` [Example 98, 6-[2-cyano-3-[[ethyl(methyl)sulfamoyl]amino]-6-fluorophenoxy]-3-[2-[4-[(2S)-2-[4-[4-[[(3S)-2,6-dioxopiperidin-3-yl]amino]-2-fluorophenyl]piperidin-1-yl]-3-hydroxypropanoyl]piperazin-1-yl]pyrimidin-5-yl]-4-oxoquinazoline], the Emax amounted to 10.1%.
Take `CCN(C)S(=O)(=O)Nc1ccc(F)c(Oc2ccc3ncn(C4CCC5(CC4)CCN(C(=O)CN4CCC(c6ccc7c(N8CCC(=O)NC8=O)nn(C)c7c6)CC4)CC5)c(=O)c3c2)c1C#N` [Example 155, 9-[6-[2-cyano-3-[[ethyl(methyl)sulfamoyl]amino]-6-fluorophenoxy]-4-oxoquinazolin-3-yl]-3-[2-[4-[3-(2,4-dioxo-1,3-diazinan-1-yl)-1-methylindazol-6-yl]piperidin-1-yl]acetyl]-3-azaspiro[5.5]undecane]: where the note is “A375.10 cells, 24 h”, half-maximal degradation (DC50) was put at 0.0232 µM. Further, the Emax under setting [1] is 9.75%.
On to `CCN(C)S(=O)(=O)Nc1ccc(F)c(Oc2ccc3ncn([C@@H]4COC5(CCN(C(=O)CC6(O)CCN(c7cc8c(cc7F)c(N7CCC(=O)NC7=O)nn8C)CC6)CC5)C4)c(=O)c3c2)c1C#N` [Example 228, (3S)-3-[6-[2-cyano-3-[[ethyl(methyl)sulfamoyl]amino]-6-fluoro-phenoxy]-4-oxo-quinazolin-3-yl]-8-[2-[1-[3-(2,4-dioxohexahydropyrimidin-1-yl)-5-fluoro-1-methyl-indazol-6-yl]-4-hydroxy-4-piperidyl]acetyl]-1-oxa-8-azaspiro[4.5]decane], for which, for the setting “A375.10 cells, 24 h”, the DC50 is 0.0186 µM. In addition, the Emax under setting [1] was found to be 7.82%.
`CCN(C)S(=O)(=O)Nc1cccc(Oc2ccc3ncn(C4CC5(CCN(C(=O)CN6CCC(c7ccc(NC8CCC(=O)NC8=O)cc7F)CC6)CC5)C4)c(=O)c3c2)c1C#N` (stereo not drawn) [Example 26, 6-[2-cyano-3-[[ethyl(methyl)sulfamoyl]amino]phenoxy]-3-[7-[2-[4-[4-[(2,6-dioxopiperidin-3-yl)amino]-2-fluorophenyl]piperidin-1-yl]acetyl]-7-azaspiro[3.5]nonan-2-yl]-4-oxoquinazoline]: where the note is “A375.10 cells, 24 h”, it took 0.00849 µM to reach half-maximal degradation (DC50). Besides, under setting [1], the Emax came to 10%.
As for `CCN(C)S(=O)(=O)Nc1ccc(F)c(Oc2ccc3ncn(C4CC5(CCN(C(=O)CN6CCC(c7ccc8c(C9CCC(=O)NC9=O)nn(C)c8c7)CC6)CC5)C4)c(=O)c3c2)c1C#N` (stereo not drawn) [Example 149, 6-[2-cyano-3-[[ethyl(methyl)sulfamoyl]amino]-6-fluorophenoxy]-3-[7-[2-[4-[3-(2,6-dioxopiperidin-3-yl)-1-methylindazol-6-yl]piperidin-1-yl]acetyl]-7-azaspiro[3.5]nonan-2-yl]-4-oxoquinazoline], half-maximal degradation (A375.10 cells, 24 h) (DC50) was put at 0.0107 µM. Also, the Emax under setting [1] was 11.5%.
Compound `CCN(C)S(=O)(=O)Nc1ccc(F)c(Oc2ccc3ncn(CCCC4CCN(C(=O)CN5CCC(c6ccc7c(C8CCC(=O)NC8=O)nn(C)c7c6)CC5)CC4)c(=O)c3c2)c1C#N` (stereo not drawn) [Example 145, 6-[2-cyano-3-[[ethyl(methyl)sulfamoyl]amino]-6-fluorophenoxy]-3-[3-[1-[2-[4-[3-(2,6-dioxopiperidin-3-yl)-1-methylindazol-6-yl]piperidin-1-yl]acetyl]piperidin-4-yl]propyl]-4-oxoquinazoline] showed a DC50 (A375.10 cells, 24 h) of 0.0106 µM. Also, the Emax under setting [1] was determined as 15%.
With `CCN(C)S(=O)(=O)Nc1ccc(F)c(Oc2ccc3ncn([C@H]4CCC5(CCN(C(=O)CN6CCC(c7ccc(NC8CCC(=O)NC8=O)c(F)c7F)CC6)CC5)C4)c(=O)c3c2)c1C#N` (stereo partly drawn) [Example 63, 6-[2-cyano-3-[[ethyl(methyl)sulfamoyl]amino]-6-fluorophenoxy]-3-[(3S)-8-[2-[4-[4-[(2,6-dioxopiperidin-3-yl)amino]-2,3-difluorophenyl]piperidin-1-yl]acetyl]-8-azaspiro[4.5]decan-3-yl]-4-oxoquinazoline], the Emax stood at 9.52%. The same compound displayed a DC50 (A375.10 cells, 24 h) of 0.0204 µM.

A word on the DC50: it is the midpoint of the concentration-degradation curve. Usually Emax stands for the greatest response seen or fitted, relative to the assay's reference.

The values are drawn from patent publication US12486253B2, “Therapeutics for the degradation of mutant BRAF” (C4 THERAPEUTICS, INC., priority 2021, dated 2025).
